Experimental data published in patent publication EP4643856A1, “CARBAZOLE DERIVATIVES USED AS NEUROPROTECTANTS AND IN THE TREATMENT OF DISORDERS WITH REDUCED NAD METABOLISM” (Centre National de la Recherche Scientifique, priority 2024, dated 2025).
“Also recorded” adds a separate entry of the source.

Tests used:
[1] = tested on: HeLa cells; test: FK866-induced cytotoxicity, viability assay (prestoblue assay); assay type: cell-based; details: 3.5 nM FK866 in the presence of 6 µM compound, 72 hours
Method: (§1) This clearly indicates an activation of the pathways leading to NADH production. • Figure 3 represents the effect of compounds I-a, I-f, I-m, I-n, I-q and the comparative example on the cytotoxicity mediated by NAMPT inhibitor FK866. HeLa cells were seeded in microplates and incubated with 3.5 nM FK866 without (black) or in the presence of 6 µM of I-a and different analogues (grey), as indicated, for 72 hours. A viability assay (prestoblue assay) was then conducted. […] Behavioral assessments were performed on 5-week-old male Sprague-Dawley rats before (basal values) and at days 4, 7, 11 and 14 after the beginning of the drug injections (Compound I-a 50 mg/kg, paclitaxel (PTX) 4 mg/kg, Compound I-a 50 mg/kg + PTX 4 mg/kg). Control animals (Vehicle) received vehicle injections. The results are presented by mean ± standard deviation (n = 6 per group). Tactile nociceptive thresholds were assessed using an electronic von Frey test (J. Ferrier, F. Marchand, D. Balayssac, Assessment of mechanical allodynia in rats using the electronic von frey test, BIO-Protoc., 6 (2016), 10.21769/BioProtoc.1933). Rats were placed individually in plastic compartments on an elevated wire floor and left for habituation for 15 min before each experiment. […] The maximum force applied (expressed in grams) to induce paw withdrawal was recorded automatically.
The compound FK866 is known to be a potent selective inhibitor of the NAMPT enzyme. Administration of FK866 in cultured cells results in depletion of intracellular NAD levels and subsequent cell death. The effect of compound I-a and other compounds of the series on FK866-induced cytotoxicity in HeLa cells was assayed.
HeLa cells were seeded in microplates and incubated with 3.5 nM FK866 without (black) or in the presence of 6 µM of I-a and different analogues (grey), as indicated, for 72 hours. A viability assay (prestoblue assay) was then conducted.

[2] = tested on: HeLa cells; test: Kinetics of NADH autofluorescence (endogenous NADH production) by confocal microscopy; assay type: cell-based; details: I-a (5 µM) or I-s (0.5 µM), 25-minute analysis, in comparison with controls
[3] = tested on: rat model of paclitaxel-induced neuropathy; test: Rat model of paclitaxel-induced neuropathy, electronic von Frey test; assay type: in vivo; details: days 4, 7, 11 and 14
Method: as §1

[4] = target: NAMPT (Homo sapiens, UniProt P43490); test: NAMPT activation in vitro, biochemical assay
Chain of NAMPT (P43490 whole entry, species assumed): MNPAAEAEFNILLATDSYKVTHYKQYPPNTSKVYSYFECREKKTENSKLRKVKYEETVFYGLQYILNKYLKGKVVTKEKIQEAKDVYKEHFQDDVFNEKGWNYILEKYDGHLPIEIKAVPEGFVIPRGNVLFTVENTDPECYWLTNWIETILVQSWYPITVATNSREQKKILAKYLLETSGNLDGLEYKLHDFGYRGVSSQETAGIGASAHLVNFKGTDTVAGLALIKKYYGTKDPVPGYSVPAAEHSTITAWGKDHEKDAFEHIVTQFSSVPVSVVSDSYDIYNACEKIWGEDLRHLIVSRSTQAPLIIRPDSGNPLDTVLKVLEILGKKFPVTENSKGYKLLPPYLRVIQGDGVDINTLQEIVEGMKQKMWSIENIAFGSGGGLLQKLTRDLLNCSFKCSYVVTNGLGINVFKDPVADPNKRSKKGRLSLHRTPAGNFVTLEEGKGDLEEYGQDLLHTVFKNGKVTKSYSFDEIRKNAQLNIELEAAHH

SMILES: COc1cccc(NCC(F)Cn2c3ccc(Cl)cc3c3c(C)c(-n4cccc4)cc(C)c32)c1 (centres unmarked) [Comparative example, N-[3-(6-chloro-1,4-dimethyl-3-pyrrol-1-yl-carbazol-9-yl)-2-fluoro-propyl]-3-methoxy-aniline, reference compound]
- effect on FK866-induced cell death [1]: does not reduce FK866-induced cell death

SMILES: Cc1cc(-n2cccc2)c(C)c2c1[nH]c1ccc(Cl)cc12 [I-a, 6-chloro-1,4-dimethyl-3-pyrrol-1-yl-9H-carbazole]
- NADH production (NADH autofluorescence) [2]: dose-dependent increase in NADH production
- tactile sensitivity (tactile nociceptive thresholds, von Frey) ([3]; Compound I-a 50 mg/kg + PTX 4 mg/kg, force in grams, n = 6 per group): prevents the hypersensitivity induced by PTX
- NAMPT activation [4]: activates NAMPT in vitro
- effect on FK866-induced cell death [1]: significantly reduced cell death

SMILES: Cc1cc(-n2cccc2)c(C)c2c1[nH]c1ccc(Br)cc12 [I-f]
- effect on FK866-induced cell death [1]: can relieve the cytotoxicity of the NAMPT inhibitor FK866; also recorded: reduced cell death

SMILES: Cc1cc(-n2cccc2)c(C)c2c1[nH]c1ccc(O)cc12 [I-m]
- effect on FK866-induced cell death [1]: no detectable protective effect

SMILES: CCOC(=O)Oc1ccc2[nH]c3c(C)cc(-n4cccc4)c(C)c3c2c1 [I-n]
- effect on FK866-induced cell death [1]: significantly reduced cell death

SMILES: CCc1cccc2c1[nH]c1c(C)cc(-n3cccc3)c(C)c12 [I-q]
- effect on FK866-induced cell death [1]: significantly reduced cell death

SMILES: Cc1cc(-n2ccc(CO)c2)c(C)c2c1[nH]c1ccc(Cl)cc12 [I-s]
- NADH production (NADH autofluorescence) [2]: dose-dependent increase in NADH production

SMILES: CC(=O)O[C@H]1C(=O)[C@@]2(C)[C@H]([C@H](OC(=O)c3ccccc3)[C@]3(O)C[C@H](OC(=O)[C@H](O)[C@@H](NC(=O)c4ccccc4)c4ccccc4)C(C)=C1C3(C)C)[C@]1(OC(C)=O)CO[C@@H]1C[C@@H]2O [PTX, paclitaxel, reference compound]
- tactile sensitivity (tactile nociceptive thresholds, von Frey) ([3]; PTX 4 mg/kg alone, compared with basal value at day 0): progressively induce a tactile hypersensitivity; also recorded: developed progressively tactile hypersensitivity
